The NIST ThermoML archive (doi:10.1016/j.fluid.2015.12.032)

Conditions: 101.33 kPa, Liquid, Falling or rolling sphere viscometry

CCCC[N+]1(C)CCOCC1.N#C[C-](C#N)C#N [4-butyl-4-methylmorpholinium tricyanomethanide]
Conditions | viscosity [mPa·s]
288.15 K | 500.4
298.15 K | 225.5
308.15 K | 118.4
318.15 K | 69.89
328.15 K | 44.14
338.15 K | 30.31
348.15 K | 21.9
358.15 K | 16.33
368.15 K | 12.77
